Tests used:
[1] = system: Monochoria vaginalis, Presl.; assay: Preemergence weed control under flooded paddy conditions, MOOVA (Monochoria); assay type: in vivo; conditions: flooded paddy; on herbicidal effect rating, MOOVA: meaning of each grade not given here
[2] = system: Oryza sativa, (L.) Tebonnet; assay: Rice tolerance to post-transplant applications under flooded paddy conditions (Example 187), ORYSAT (Rice, Tebonnet); on herbicidal effect rating ORYSAT: meaning of each grade not given here
[3] = system: Sagittaria pygmaea, L.; assay: Preemergence weed control under flooded paddy conditions, SAGPY (Arrowhead (Pygmaea)); assay type: in vivo; conditions: flooded paddy; on herbicidal effect rating, SAGPY: meaning of each grade not given here
[4] = system: Echinochloa oryzoides (Ard.) Fritsch.; assay: Preemergence weed control under flooded paddy conditions, ECHORC (Watergrass (Calif.)); assay type: in vivo; conditions: flooded paddy; on herbicidal effect rating, ECHORC: meaning of each grade not given here
[5] = system: Cyperus serotinus, Rottb.; assay: Preemergence weed control under flooded paddy conditions, CYPSE (Flatsedge); assay type: in vivo; on herbicidal effect rating, CYPSE: meaning of each grade not given here
[6] = system: Cyperus iria; assay: Preemergence weed control under flooded paddy conditions, CYPIR (Rice Flatsedge); assay type: in vivo; conditions: flooded paddy; on herbicidal effect rating, CYPIR: meaning of each grade not given here
[7] = Rate 0.0313 kg/ha, preemergence, rated three to four weeks after treatment
[8] = Rate 0.0625 kg/ha, preemergence, rated three to four weeks after treatment
[9] = Rate 0.1250 kg/ha, preemergence, rated three to four weeks after treatment
[10] = Rate 0.2500 kg/ha, preemergence, rated three to four weeks after treatment
[11] = Rate 0.1250 kg/ha, rated three to four weeks after treatment
[12] = Rate 0.2500 kg/ha, rated three to four weeks after treatment
[13] = 0.0313 kg/ha, preemergence, rated three to four weeks after treatment
[14] = 0.0625 kg/ha, preemergence, rated three to four weeks after treatment
[15] = 0.1250 kg/ha, preemergence, rated three to four weeks after treatment
[16] = 0.2500 kg/ha, preemergence, rated three to four weeks after treatment
[17] = 0.0313 kg/ha, rated three to four weeks after treatment
[18] = 0.0625 kg/ha, rated three to four weeks after treatment
[19] = 0.1250 kg/ha, rated three to four weeks after treatment
[20] = 0.2500 kg/ha, rated three to four weeks after treatment
[21] = Rate 0.0320 kg/ha, preemergence weeds, rated three to four weeks after treatment
[22] = Rate 0.0620 kg/ha, preemergence weeds, rated three to four weeks after treatment
[23] = Rate 0.1250 kg/ha, preemergence weeds, rated three to four weeks after treatment
[24] = Rate 0.2500 kg/ha, preemergence weeds, rated three to four weeks after treatment
[25] = Rate 0.0320 kg/ha, preemergence, rated 3-4 weeks after treatment
[26] = Rate 0.0620 kg/ha, preemergence, rated 3-4 weeks after treatment
[27] = Rate 0.1250 kg/ha, preemergence, rated 3-4 weeks after treatment
[28] = Rate 0.2500 kg/ha, preemergence, rated 3-4 weeks after treatment

Cn1c(C(F)(F)F)cc(=O)n(-c2ccc3snc(CO)c3c2)c1=O [Example 225, 3-[3-(Hydroxymethyl)-1,2-benzisothiazol-5-yl]-1-methyl-6-(trifluoromethyl)-2,4(1H,3H)-pyrimidinedione]
7.0: ORYSAT herbicidal effect rating [2, 12] | ECHORC herbicidal effect rating [4, 10] | CYPIR herbicidal effect rating [6, 10]
2.0: ECHORC herbicidal effect rating [4, 8] | CYPIR herbicidal effect rating [6, 9]
0.0: SAGPY herbicidal effect rating [3, 7] | SAGPY herbicidal effect rating [3, 8] | SAGPY herbicidal effect rating [3, 9] | SAGPY herbicidal effect rating [3, 10] | ECHORC herbicidal effect rating [4, 7] | CYPSE herbicidal effect rating [5, 7] | CYPSE herbicidal effect rating [5, 8] | CYPSE herbicidal effect rating [5, 9] | CYPSE herbicidal effect rating [5, 10] | CYPIR herbicidal effect rating [6, 7] | CYPIR herbicidal effect rating [6, 8]
9.0: MOOVA herbicidal effect rating [1, 9] | MOOVA herbicidal effect rating [1, 10]
8.0: MOOVA herbicidal effect rating [1, 7] | MOOVA herbicidal effect rating [1, 8]
3.0: ORYSAT herbicidal effect rating ([2]; Rate 0.0313 kg/ha, rated three to four weeks after treatment)
4.0: ORYSAT herbicidal effect rating ([2]; Rate 0.0625 kg/ha, rated three to four weeks after treatment) | ECHORC herbicidal effect rating [4, 9]
6.0: ORYSAT herbicidal effect rating [2, 11]

COC(=O)C(C)Oc1ccc(C(C)C)cc1-c1nsc2ccc(-n3c(=O)cc(C(F)(F)F)n(C)c3=O)cc12 (stereo not drawn) [Example 30, Methyl 2-{2-{5-[3,6-dihydro-3-methyl-4-(trifluoromethyl)-2,6-dioxo-1(2H)-pyrimidinyl]-1,2-benzisothiazol-3-yl}-4-isopropylphenoxy}propionate]
3.0: herbicidal effect rating, ORYSAT (rice tolerance) [2, 18] | herbicidal effect rating, ORYSAT (rice tolerance) [2, 19]
2.0: herbicidal effect rating, ORYSAT (rice tolerance) [2, 17] | herbicidal effect rating, SAGPY [3, 15] | herbicidal effect rating, CYPSE [5, 16] | herbicidal effect rating, CYPIR [6, 13]
3.5: herbicidal effect rating, ORYSAT (rice tolerance) [2, 20]
6.5: herbicidal effect rating, ECHORC [4, 13]
4.0: herbicidal effect rating, CYPSE [5, 15]
9.0: herbicidal effect rating, MOOVA [1, 13] | herbicidal effect rating, MOOVA [1, 14] | herbicidal effect rating, MOOVA [1, 15] | herbicidal effect rating, MOOVA [1, 16] | herbicidal effect rating, ECHORC [4, 15] | herbicidal effect rating, ECHORC [4, 16]
8.5: herbicidal effect rating, ECHORC [4, 14]
7.0: herbicidal effect rating, SAGPY [3, 16]
8.0: herbicidal effect rating, CYPIR [6, 15] | herbicidal effect rating, CYPIR [6, 16]
0.0: herbicidal effect rating, SAGPY [3, 13] | herbicidal effect rating, SAGPY [3, 14] | herbicidal effect rating, CYPSE [5, 13] | herbicidal effect rating, CYPSE [5, 14]
6.0: herbicidal effect rating, CYPIR [6, 14]

Cn1c(C(F)(F)F)cc(=O)n(-c2ccc3snc(C(=O)Oc4ccccc4)c3c2)c1=O [Example 319, 1,2-Benzisothiazole-3-carboxylic acid, 5-[3,6-dihydro-3-methyl-2,6-dioxo-4-(trifluoromethyl)-1(2H)-pyrimidinyl]-, phenyl ester]
5.0: herbicidal effect rating ORYSAT ([2]; Rate 0.0320 kg/ha, rated three to four weeks after treatment)
9.0: herbicidal effect rating, MOOVA [1, 21] | herbicidal effect rating, MOOVA [1, 22] | herbicidal effect rating, MOOVA [1, 23] | herbicidal effect rating, MOOVA [1, 24] | herbicidal effect rating, SAGPY [3, 23] | herbicidal effect rating, SAGPY [3, 24] | herbicidal effect rating, ECHORC [4, 23] | herbicidal effect rating, ECHORC [4, 24] | herbicidal effect rating, CYPIR [6, 22] | herbicidal effect rating, CYPIR [6, 23] | herbicidal effect rating, CYPIR [6, 24]
7.0: herbicidal effect rating ORYSAT [2, 12] | herbicidal effect rating, ECHORC [4, 22]
4.0: herbicidal effect rating, CYPSE [5, 21]
3.0: herbicidal effect rating, ECHORC [4, 21] | herbicidal effect rating, CYPIR [6, 21]
6.0: herbicidal effect rating ORYSAT ([2]; Rate 0.0620 kg/ha, rated three to four weeks after treatment) | herbicidal effect rating ORYSAT [2, 11] | herbicidal effect rating, SAGPY [3, 21] | herbicidal effect rating, SAGPY [3, 22] | herbicidal effect rating, CYPSE [5, 22] | herbicidal effect rating, CYPSE [5, 23] | herbicidal effect rating, CYPSE [5, 24]

Cc1ccc(OCC(=O)N(C(C)C)C(C)C)c(-c2nsc3ccc(-n4c(=O)cc(C(F)(F)F)n(C)c4=O)cc23)c1 [Example 61, 3-{3-{6-[(Diisopropylcarbamoyl)methoxy]-m-tolyl}-1,2-benzisothiazol-5-yl}-1-methyl-6-(trifluoromethyl)-2,4(1H,3H)-pyrimidinedione]
8.0: herbicidal effect rating, MOOVA [1, 13] | herbicidal effect rating, MOOVA [1, 14] | herbicidal effect rating, ECHORC [4, 15] | herbicidal effect rating, ECHORC [4, 16]
9.0: herbicidal effect rating, MOOVA [1, 15] | herbicidal effect rating, MOOVA [1, 16]
7.0: herbicidal effect rating, ECHORC [4, 14]
2.0: herbicidal effect rating, CYPIR [6, 15] | herbicidal effect rating, CYPIR [6, 16]
4.0: herbicidal effect rating, ECHORC [4, 13]
0.0: herbicidal effect rating, ORYSAT (rice tolerance) [2, 17] | herbicidal effect rating, ORYSAT (rice tolerance) [2, 18] | herbicidal effect rating, ORYSAT (rice tolerance) [2, 19] | herbicidal effect rating, ORYSAT (rice tolerance) [2, 20] | herbicidal effect rating, SAGPY [3, 13] | herbicidal effect rating, SAGPY [3, 14] | herbicidal effect rating, SAGPY [3, 15] | herbicidal effect rating, SAGPY [3, 16] | herbicidal effect rating, CYPSE [5, 13] | herbicidal effect rating, CYPSE [5, 14] | herbicidal effect rating, CYPSE [5, 15] | herbicidal effect rating, CYPSE [5, 16] | herbicidal effect rating, CYPIR [6, 13] | herbicidal effect rating, CYPIR [6, 14]

CCN(CC)C(=O)COc1ccc(C)cc1-c1nsc2ccc(-n3c(=O)cc(C(F)(F)F)n(C)c3=O)cc12 [Example 60, 3-{3-{6-[(Diethylcarbamoyl)methoxy]-m-tolyl}-1,2-benzisothiazol-5-yl}-1-methyl-6-(trifluoromethyl)-2,4(1H,3H)-pyrimidinedione]
0.0: herbicidal effect rating, ORYSAT (rice tolerance) [2, 17] | herbicidal effect rating, ORYSAT (rice tolerance) [2, 18] | herbicidal effect rating, ORYSAT (rice tolerance) [2, 19] | herbicidal effect rating, ORYSAT (rice tolerance) [2, 20] | herbicidal effect rating, SAGPY [3, 13] | herbicidal effect rating, SAGPY [3, 14] | herbicidal effect rating, SAGPY [3, 15] | herbicidal effect rating, SAGPY [3, 16] | herbicidal effect rating, CYPSE [5, 13] | herbicidal effect rating, CYPSE [5, 14] | herbicidal effect rating, CYPSE [5, 15] | herbicidal effect rating, CYPSE [5, 16] | herbicidal effect rating, CYPIR [6, 13] | herbicidal effect rating, CYPIR [6, 14] | herbicidal effect rating, CYPIR [6, 15] | herbicidal effect rating, CYPIR [6, 16]
9.0: herbicidal effect rating, MOOVA [1, 13] | herbicidal effect rating, MOOVA [1, 14] | herbicidal effect rating, MOOVA [1, 15] | herbicidal effect rating, MOOVA [1, 16] | herbicidal effect rating, ECHORC [4, 16]
8.0: herbicidal effect rating, ECHORC [4, 15]
4.0: herbicidal effect rating, ECHORC [4, 14]
2.0: herbicidal effect rating, ECHORC [4, 13]

COCC(C)OC(=O)C(C)(C)Oc1ccc(C)cc1-c1nsc2ccc(-n3c(=O)cc(C(F)(F)F)n(C)c3=O)cc12 (stereo not drawn) [Example 532, Propionic acid, 2-{{2-{5-[3,6-dihydro-3-methyl-2,6-dioxo-4-(trifluoromethyl)-1(2H)-pyrimidinyl]-1,2-benzisothiazol-3-yl}-p-tolyl}oxy}-2-methyl-, 2-methoxy-1-methylethyl ester]
0.0: herbicidal effect rating ORYSAT ([2]; Rate 0.0320 kg/ha, rated 3-4 weeks after treatment) | herbicidal effect rating ORYSAT ([2]; Rate 0.0620 kg/ha, rated 3-4 weeks after treatment) | herbicidal effect rating ORYSAT ([2]; Rate 0.1250 kg/ha, rated 3-4 weeks after treatment) | herbicidal effect rating, SAGPY [3, 25] | herbicidal effect rating, SAGPY [3, 26] | herbicidal effect rating, SAGPY [3, 27] | herbicidal effect rating, CYPSE [5, 25] | herbicidal effect rating, CYPSE [5, 26] | herbicidal effect rating, CYPSE [5, 27] | herbicidal effect rating, CYPSE [5, 28]
2.0: herbicidal effect rating ORYSAT ([2]; Rate 0.2500 kg/ha, rated 3-4 weeks after treatment)
9.0: herbicidal effect rating, MOOVA [1, 25] | herbicidal effect rating, MOOVA [1, 26] | herbicidal effect rating, MOOVA [1, 27] | herbicidal effect rating, MOOVA [1, 28] | herbicidal effect rating, SAGPY [3, 28] | herbicidal effect rating, ECHORC [4, 25] | herbicidal effect rating, ECHORC [4, 26] | herbicidal effect rating, ECHORC [4, 27] | herbicidal effect rating, ECHORC [4, 28] | herbicidal effect rating, CYPIR [6, 25] | herbicidal effect rating, CYPIR [6, 26] | herbicidal effect rating, CYPIR [6, 27] | herbicidal effect rating, CYPIR [6, 28]
